Common to all, as to conditions: stereoisomer not certain
The nature of data set [1]: RP, Waters CORTECS T3, 100 × 2.1 mm, 2.7 µm, 0.25 mL/min, estimated dead time 0.88 min; A: water + 0.1% formic acid, pH 3; B: methanol + 0.1% formic acid, pH 3; gradient (min/%B) 0/5 5/5 25/95 25.1/100 35/100 35.1/5 45/5.
A short description of data set [2]: RP, Waters CORTECS T3, 100 × 2.1 mm, 2.7 µm, 0.1 mL/min, estimated dead time 2.2 min; A: water + 0.1% formic acid, pH 3; B: methanol + 0.1% formic acid, pH 3; gradient (min/%B) 0/5 5/5 25/95 25.1/100 35/100 35.1/5 45/5.
Data set [3] is described as follows: RP, Waters CORTECS T3, 100 × 2.1 mm, 2.7 µm, 0.3 mL/min, estimated dead time 0.73 min; A: water + 0.1% formic acid, pH 3; B: methanol + 0.1% formic acid, pH 3; gradient (min/%B) 0/5 5/5 25/100 30/100 30.1/5 35/5.
A short description of data set [4]: RP, Waters CORTECS T3, 100 × 2.1 mm, 2.7 µm, 0.3 mL/min, estimated dead time 0.73 min; A: water + 0.1% formic acid, pH 3; B: methanol + 0.1% formic acid, pH 3; gradient (min/%B) 0/5 5/5 25/95 25.1/100 35/100 35.1/5 45/5.
The nature of data set [5]: RP, Waters CORTECS T3, 100 × 2.1 mm, 2.7 µm, 0.3 mL/min, estimated dead time 0.73 min; A: water + 0.1% formic acid, pH 3; B: methanol + 0.1% formic acid, pH 3; gradient (min/%B) 0/0 1/0 6/5 30/100 35/100 35.1/0 40/0.
Data set [6] in a line: RP, Waters CORTECS T3, 100 × 2.1 mm, 2.7 µm, 0.2 mL/min, estimated dead time 1.1 min; A: water + 0.045% formic acid + 0.11% ammonium hydroxide, pH 7; B: methanol; gradient (min/%B) 0/5 5/5 25/95 25.1/100 35/100 35.1/5 45/5.
The nature of data set [7]: RP, Waters CORTECS T3, 100 × 2.1 mm, 2.7 µm, 0.3 mL/min, estimated dead time 0.73 min; A: water + 0.1% formic acid, pH 3; B: methanol + 0.1% formic acid, pH 3; gradient (min/%B) 0/0 5/0 25/100 30/100 30.1/0 35/0.
The nature of data set [8]: RP, Waters CORTECS T3, 100 × 2.1 mm, 2.7 µm, 0.1 mL/min, estimated dead time 2.2 min; A: water + 0.1% formic acid, pH 3; B: methanol + 0.1% formic acid, pH 3; gradient (min/%B) 0/0 1/0 6/5 30/100 35/100 35.1/0 40/0.
A short description of data set [9]: RP, Waters ACQUITY UPLC BEH C18, 100 × 2.1 mm, 1.7 µm, 0.1 mL/min, estimated dead time 2.2 min; A: water + 0.1% formic acid, pH 3; B: methanol + 0.1% formic acid, pH 3; gradient (min/%B) 0/5 5/5 25/100 30/100 30.1/5 35/5.
A short description of data set [10]: RP, Waters CORTECS T3, 100 × 2.1 mm, 2.7 µm, 0.2 mL/min, estimated dead time 1.1 min; A: water + 0.1% formic acid, pH 3; B: methanol + 0.1% formic acid, pH 3; gradient (min/%B) 0/0 1/0 6/5 30/100 35/100 35.1/0 40/0.
Data set [11] in a line: RP, Waters ACQUITY UPLC BEH C18, 100 × 2.1 mm, 1.7 µm, 0.1 mL/min, estimated dead time 2.2 min; A: water + 0.045% formic acid + 0.11% ammonium hydroxide, pH 7; B: methanol; gradient (min/%B) 0/5 5/5 25/95 25.1/100 35/100 35.1/5 45/5.
The nature of data set [12]: RP, Waters CORTECS T3, 100 × 2.1 mm, 2.7 µm, 0.15 mL/min, estimated dead time 1.5 min; A: water + 0.1% formic acid, pH 3; B: methanol + 0.1% formic acid, pH 3; gradient (min/%B) 0/0 1/0 6/5 30/100 35/100 35.1/0 40/0.
Data set [13] is described as follows: RP, Thermo Scientific Hypercarb, 150 × 2.1 mm, 5 µm, 0.1 mL/min, estimated dead time 3.3 min; A: water + 0.1% formic acid, pH 3; B: methanol + 0.1% formic acid, pH 3; gradient (min/%B) 0/5 5/5 20/100 35/100 35.1/5 45/5.
Data set [14] in a line: RP, Waters CORTECS T3, 100 × 2.1 mm, 2.7 µm, 0.2 mL/min, estimated dead time 1.1 min; A: water + 0.1% formic acid, pH 3; B: methanol + 0.1% formic acid, pH 3; gradient (min/%B) 0/0 1/0 6/5 30/100 35/100 35.1/0 40/0. This is another data set of the same source.
Data set [15] in a line: RP, Waters ACQUITY UPLC BEH C18, 100 × 2.1 mm, 1.7 µm, 0.2 mL/min, estimated dead time 1.1 min; A: water + 0.1% formic acid, pH 3; B: methanol + 0.1% formic acid, pH 3; gradient (min/%B) 0/5 5/5 25/100 30/100 30.1/5 35/5.
Data set [16] is described as follows: RP, Waters CORTECS T3, 100 × 2.1 mm, 2.7 µm, 0.25 mL/min, estimated dead time 0.88 min; A: water + 0.1% formic acid, pH 3; B: methanol + 0.1% formic acid, pH 3; gradient (min/%B) 0/0 1/0 6/5 30/100 35/100 35.1/0 40/0.
The nature of data set [17]: RP, Waters ACQUITY UPLC BEH C18, 100 × 2.1 mm, 1.7 µm, 0.2 mL/min, estimated dead time 1.1 min; A: water + 0.025% formic acid + 20 mM ammonium acetate + 0.055% ammonium hydroxide, pH 7; B: methanol; gradient (min/%B) 0/5 5/5 25/100 30/100 30.1/5 35/5.

Consider `O=C(O)C(O)C(O)C(O)C(O)COP(=O)(O)O` (configuration not stated) [6-PHOSPHOGLUCONIC ACID], for which, in [1], the LC retention time is 1.08 min.

As for `COc1cc(C(O)C(=O)O)ccc1O` (configuration not stated) [3-METHOXY-4-HYDROXYMANDELATE], the LC retention time in [1] was 2.78 min.

For the molecule `COC(=O)Cc1c[nH]c2ccccc12` [METHYL INDOLE-3-ACETATE], the LC retention time in data set [2] was 20.5 min; in data set [3], 15.3 min; in data set [4], 15.7 min; in [5] it was 17.6 min; in [6], 17.2 min; in data set [7], 16 min. Also, the LC retention time in [8] was 17.2 min; in data set [9], 20.5 min; in [10], 19.3 min; in data set [11], 20.9 min; in [12], 20.6 min.

As to `NC(CCSSCCC(N)C(=O)O)C(=O)O` (configuration not stated) [HOMOCYSTINE], the LC retention time was 14 min in data set [13]; 0.9 min in data set [4]; 1.35 min in data set [14]; 1.38 min in data set [15]; 1.09 min in data set [16]; 2.74 min in data set [9]. Besides, the LC retention time in data set [12] was 1.78 min.

As to `CNCCc1c[nH]c2ccccc12` [N-METHYLTRYPTAMINE], the LC retention time was 13.1 min in [2]; 8.14 min in [3]; 8.19 min in data set [4]; 9.8 min in data set [5]; 10.7 min in [6]; 9.75 min in [7]. The LC retention time in data set [16] is 10.4 min; in data set [8] it was 9.68 min; in data set [9], 13.3 min; in [17], 11.1 min; in data set [10] it was 11.2 min; in data set [11] it was 14.4 min. Also, the LC retention time in data set [12] is 12.5 min.

For the molecule `O=C(O)Cc1c[nH]c2ccc(O)cc12` [5-HYDROXYINDOLEACETATE], the LC retention time was 30.8 min in data set [13]; 13.4 min in data set [2]; 8.56 min in [3]; 8.59 min in [4]; 10.1 min in [5]; 10 min in data set [7]. In addition, the LC retention time is 10.8 min in data set [16]; 10.1 min in data set [8]; 13.3 min in data set [9]; 11.5 min in data set [10]; 12.9 min in data set [12].

In the case of `CCCCCCCCC=CCCCCCCCC(=O)OCC(O)CO` (racemic) [1-OLEOYL-RAC-GLYCEROL], the LC retention time in [3] was 24.6 min; in data set [4], 25.6 min; in data set [5] it was 29 min; in [6], 26.2 min; in data set [7] it was 24.8 min; in data set [8], 26.2 min. The LC retention time in [9] is 29.3 min; in data set [17], 26.3 min; in data set [11] it was 30.2 min.

In the case of `CCCCC(CC)COC(=O)c1ccccc1C(=O)OCC(CC)CCCC` (configuration not stated) [BIS(2-ETHYLHEXYL)PHTHALATE], the LC retention time in data set [3] was 25.4 min; in data set [4], 26.4 min; in data set [5] it was 30 min; in [6], 26.7 min; in [7] it was 25.5 min; in data set [16] it was 30.4 min. Besides, the LC retention time in data set [8] is 26.7 min; in [9], 30 min; in [11], 30.8 min; in data set [12], 32.3 min.

As for `NC(=O)[C@@H](N)Cc1c[nH]c2ccccc12` [L-TRYPTOPHANAMIDE], the LC retention time in data set [2] is 11.1 min; in data set [3], 4.89 min; in data set [5] it was 7.63 min; in data set [6], 9.97 min; in data set [7], 8.34 min; in data set [16], 8.41 min. The LC retention time in data set [8] is 7.08 min; in [9], 11.2 min; in [17], 10.1 min; in [10] it was 9.28 min; in [11] it was 14.1 min; in data set [12], 10.8 min.

Regarding `N[C@@H](Cc1ccccc1)C(=O)O` [L-PHENYLALANINE], the LC retention time is 17.2 min in data set [2]; 11.8 min in [3]; 12 min in [4]; 13.6 min in data set [5]; 12.8 min in data set [7]; 14.4 min in data set [16]. The LC retention time in data set [8] was 13.6 min; in data set [9], 17.3 min; in data set [10], 15.3 min; in data set [12], 16.7 min.

Turning to `CCOC(=O)Cc1c[nH]c2ccccc12` [ETHYL 3-INDOLEACETATE], the LC retention time in [2] is 22.1 min; in [3], 16.9 min; in data set [4], 17.4 min; in data set [5], 19.6 min; in data set [6], 18.9 min; in [7], 17.5 min. Besides, the LC retention time is 18.8 min in data set [8], 21.1 min in data set [10], 22.5 min in data set [11] and 22.4 min in data set [12].

Consider `O=CCc1c[nH]c2ccccc12` [INDOLE-3-ACETALDEHYDE], for which the LC retention time is 13.8 min in data set [2]; 9.2 min in data set [3]; 9.27 min in data set [4]; 10.8 min in data set [5]; 10.7 min in data set [6]; 11.3 min in [16]. Moreover, the LC retention time in data set [8] was 10.6 min; in [9] it was 13.6 min; in data set [17] it was 10.6 min; in [10] it was 12.1 min; in [11], 13.7 min; in data set [12], 13.3 min.
